# Source: patent US5405861A, “Triazole compounds and antifungal compositions thereof” (Takeda Chemical Industries, Co., Ltd., priority 1989, dated 1995)
# Structures can show the parent of a compound that is named as a salt. Where two headings read alike, the source gives them in different places.
# Experiments:
# [1] = tested on: Candida albicans; experiment: Infection-preventing effect in experimental infection in mice, Method 2 (Table 7-2); format: in vivo, Crj:CDF1 mice; details: po, 168 h, p.o., given just after infection, survival 7 days after infection
# Protocol: (§1) Method 2 (Table 7-2): To 5-week-old Crj:CDF1 mice the minimum lethal dose of Candida albicans was inoculated intravenously. The test drug was given just after infection. The effectiveness of the drug was expressed in ED50 values calculated by the Reed and Muench method from the survival rate 7 days after infection. The ED50 values were calculated based on the […].
# [2] = tested on: Candida albicans (IFO 0538); experiment: Antifungal activity against Candida albicans, paper disc growth inhibition zone (Tables 5 and 6); format: cell-based; details: 28° C., 2 days incubation; for zone of inhibition at 1000 µg/mL: 48 h, read-out: Inhibition zone diameter
# Protocol: The antifungal activities of the compounds (I) were evaluated by the following method: a sheet of filter paper disc (manufactured by Toyo Seisakusho, 8 mm in diameter) soaked in a 1000 μg/ml solution of a compound (I) in methanol was placed on an agar plate, which was incubated at 28° C. for 2 days, and the diameter of the growth inhibition zone around the filter paper disc was measured. The following culture media were used:
# A: yeast nitrogen base agar medium
# B: yeast nitrogen base agar medium (pH 7.0)
# [3] = tested on: Candida albicans; experiment: Infection-preventing effect in experimental infection in mice, Method 1 (Table 7-1); format: in vivo, Crj:CDF1 mice; details: Candida albicans, 168 h, given 0 and 2 hours after infection, survival 7 days after infection, total dose, read-out: ED50
# Protocol: as §1, with “1” for “2”, “7-1):” for “7-2):”, “twice 0 and 2 hours” for “just”
# [4] = pH 7, B medium (yeast nitrogen base agar, pH 7.0)
# [5] = A medium (yeast nitrogen base agar)
SMILES,ED50 [1] [mg/kg],"zone of inhibition at 1000 µg/mL [2, 4] [mm]","ED50 ([3]; sc, s.c.) [mg/kg]","zone of inhibition at 1000 µg/mL [2, 5] [mm]","Inhibition zone diameter [2, 5] [mm]","ED50 ([3]; po, p.o.) [mg/kg]"
C[C@@H](SCc1csc(C(F)(F)F)n1)[C@](O)(Cn1cncn1)c1ccc(F)cc1F [Compound 122],0.5,35,–,–,–,–
C[C@@H](SCc1ncc2cccnn12)[C@](O)(Cn1cncn1)c1ccc(F)cc1F [Compound 131],0.7,40,–,–,–,–
C[C@@H](SCc1ncc2ncccn12)[C@](O)(Cn1cncn1)c1ccc(F)cc1F [Compound 130],0.7,35,–,–,–,–
Cc1nccc(CS[C@H](C)[C@](O)(Cn2cncn2)c2ccc(F)cc2F)n1 [Compound 127],2,33,–,–,–,–
C[C@@H](SCc1nccn1C)[C@](O)(Cn1cncn1)c1ccc(F)cc1F [Compound 78],0.5,30,–,–,–,–
C[C@@H](SCc1nsc(N)n1)[C@](O)(Cn1cncn1)c1ccc(F)cc1F [Compound 128],2,30,–,–,–,–
OC(Cn1cncn1)(c1ccc(F)cc1F)C1(S)CC1 (centres unmarked) [Compound 120],0.35,30,–,–,–,–
C[C@@H](SCc1cnc2cccnn12)[C@](O)(Cn1cncn1)c1ccc(F)cc1F [Compound 129],0.5,35,–,–,–,–
Cc1csc(CS[C@H](C)[C@](O)(Cn2cncn2)c2ccc(F)cc2F)n1 [Compound 99],1.4,35,–,–,–,–
C[C@@H](SCc1nncn1C1CC1)[C@](O)(Cn1cncn1)c1ccc(F)cc1F [Compound 114],0.4,15,–,–,–,–
C[C@@H](SCc1cn2cccnc2n1)[C@](O)(Cn1cncn1)c1ccc(F)cc1F [Compound 125],0.5,33,–,–,–,–
C[C@@H](SCc1ncc2n1CCC2)[C@](O)(Cn1cncn1)c1ccc(F)cc1F [Compound 97],0.5,27,–,–,–,–
Cc1ncc(CS[C@H](C)[C@](O)(Cn2cncn2)c2ccc(F)cc2F)s1 [Compound 108],1.4,40,–,–,–,–
C[C@@H](SCc1nccn1CC(F)F)[C@](O)(Cn1cncn1)c1ccc(F)cc1F [Compound 109],0.5,28,–,–,–,–
C[C@@H](SCc1nccn1C)[C@](O)(Cn1cncn1)c1ccc(F)cc1F (relative stereo) [Compound 16],–,25,0.63,–,–,–
OC(CSCCn1cncn1)(Cn1cncn1)c1ccc(F)cc1F (centres unmarked) [Compound 2],–,17,19.3,18,–,–
"C[C@H](S)[C@](O)(Cn1cncn1)c1ccc(F)cc1F [Compound 118, (2R,3S)-2-(2,4-difluorophenyl)-3-mercapto-1-(1H-1,2,4-triazol-1-yl)-2-butanol]",2.8,33,–,–,–,–
CC(SCC(O)(Cn1cncn1)c1ccc(F)cc1F)c1ccncc1 (centres unmarked) [Compound 10],–,–,35.4,–,21,–
"CC(=O)S[C@H](C)[C@](O)(Cn1cncn1)c1ccc(F)cc1F [Compound 45, (2R,3R)-3-acetylthio-2-(2,4-difluorophenyl)-1-(1H-1,2,4-triazol-1-yl)-2-butanol]",–,40,0.16,–,–,0.18
C[C@@H](SCc1ccncn1)[C@](O)(Cn1cncn1)c1ccc(F)cc1F [Compound 126],2,38,–,–,–,–

SMILES,ED50 [1] [mg/kg],"zone of inhibition at 1000 µg/mL [2, 4] [mm]","ED50 ([3]; sc, s.c.) [mg/kg]","zone of inhibition at 1000 µg/mL [2, 5] [mm]","Inhibition zone diameter [2, 5] [mm]","ED50 ([3]; po, p.o.) [mg/kg]"
C[C@@H](SCc1nccn1CCF)[C@](O)(Cn1cncn1)c1ccc(F)cc1F (relative stereo) [Compound 48],–,23,0.77,–,–,–
C[C@@H](SCc1nccn1CC(F)(F)F)[C@](O)(Cn1cncn1)c1ccc(F)cc1F (relative stereo) [Compound 49],–,25,1,–,–,–
C[C@@H](SCc1csc(C2CC2)n1)[C@](O)(Cn1cncn1)c1ccc(F)cc1F [Compound 123],0.5,35,–,–,–,–
C[C@@H](SCc1cn2ccncc2n1)[C@](O)(Cn1cncn1)c1ccc(F)cc1F [Compound 124],0.7,30,–,–,–,–
"C[C@@H](SCCc1nccn1C)[C@](O)(Cn1cncn1)c1ccc(F)cc1F (racemic) [Compound 50, (2RS,3RS)-2-(2,4-difluorophenyl)-3-[2-(1-methylimidazol-2-yl)ethyl]thio-1-(1H-1,2,4-triazol-1-yl)-2-butanol]",–,22,3.2,–,–,–
Cc1ncc(CS[C@H](C)[C@](O)(Cn2cncn2)c2ccc(F)cc2F)s1 (relative stereo) [Compound 53],–,35,2,–,–,–
C[C@@H](SCc1cncn1C)[C@](O)(Cn1cncn1)c1ccc(F)cc1F [Compound 91],< 0.25,30,–,–,–,–
CC(C)(S)C(O)(Cn1cncn1)c1ccc(F)cc1F (centres unmarked) [Compound 119],0.18,30,–,–,–,–
"C[C@@H](S)[C@](O)(Cn1cncn1)c1ccc(F)cc1F [Compound 43, (2R,3R)-2-(2,4-difluorophenyl)-3-mercapto-1-(1H-1,2,4-triazol-1-yl)-2-butanol]",–,40,0.18,–,–,0.18
Cc1nc(CS[C@H](C)[C@](O)(Cn2cncn2)c2ccc(F)cc2F)cs1 [Compound 107],0.39,33,0.71,–,–,< 0.5
C[C@@H](SCc1csc(N)n1)[C@](O)(Cn1cncn1)c1ccc(F)cc1F [Compound 121],0.5,35,–,–,–,–
Cc1nc(CS[C@H](C)[C@](O)(Cn2cncn2)c2ccc(F)cc2F)cs1 (relative stereo) [Compound 52],–,35,2,–,–,–
Cc1nc(CS[C@H](C)[C@](O)(Cn2cncn2)c2ccc(F)cc2F)sc1C (relative stereo) [Compound 36],–,45,3.2,–,–,–
C[C@@H](SCc1ncn(C)n1)[C@](O)(Cn1cncn1)c1ccc(F)cc1F (relative stereo) [Compound 32],–,40,3.2,–,–,–
C[C@@H](SCCn1cncn1)[C@](O)(Cn1cncn1)c1ccc(F)cc1F (relative stereo) [13(hydrochloride)],–,25,10,–,–,–
"C[C@H](S)[C@@](O)(Cn1cncn1)c1ccc(F)cc1F [Compound 42, (2S,3S)-2-(2,4-difluorophenyl)-3-mercapto-1-(1H-1,2,4-triazol-1-yl)-2-butanol]",> 4,34,–,–,–,–
O=S(=O)(CCn1cncn1)CC(O)(Cn1cncn1)c1ccc(F)cc1F (centres unmarked) [Compound 3],–,–,32.4,13,–,–
C[C@@H](SCc1ncc2cnccn12)[C@](O)(Cn1cncn1)c1ccc(F)cc1F [Compound 112],0.5,30,–,–,–,–
"C[C@@H](S)[C@@](O)(Cn1cncn1)c1ccc(F)cc1F [Compound 117, (2S,3R)-2-(2,4-difluorophenyl)-3-mercapto-1-(1 H-1,2,4-triazol-1-yl)-2-butanol]",> 4,25,–,–,–,–
